ChEMBL document CHEMBL1139909, “Safrole oxide is a useful tool for investigating the effect of apoptosis in vascular endothelial cells on neural stem cell survival and differentiation in vitro” (2007)
Calls of active or inactive are those of the source. No cut-off for these calls is given here.

Experiments:
[1] = system: Neural stem cell; assay: Induction of apoptosis in neural stem cells assessed as cell viability at 10 to 100 ug/mL by MTT assay; format: functional, cell-based; conditions: Mus musculus
[2] = system: Endothelial cell; assay: Induction of apoptosis in neural stem cells co-cultured with vascular endothelial cells assessed as neurites degeneration at 70 ug/mL after 10 hrs; format: functional, cell-based; conditions: Mus musculus
[3] = system: Endothelial cell; assay: Induction of necrosis in neural stem cells co-cultured with vascular endothelial cells assessed as LDH release at 70 ug/mL after 10 hrs relative to control; format: functional, cell-based; conditions: Mus musculus
[4] = system: Endothelial cell; assay: Induction of apoptosis in neural stem cells co-cultured with vascular endothelial cells assessed as inhibition of cell differentiation at 70 ug/mL after 10 hrs; format: functional, cell-based; conditions: Mus musculus
[5] = system: Endothelial cell; assay: Induction of apoptosis in neural stem cells co-cultured with vascular endothelial cells assessed as nuclear condensation at 70 ug/mL after 10 hrs; format: functional, cell-based; conditions: Mus musculus
[6] = system: Endothelial cell; assay: Induction of apoptosis in neural stem cells co-cultured with vascular endothelial cells assessed as DNA fragmentation at 70 ug/mL after 10 hrs; format: functional, cell-based; conditions: Mus musculus
[7] = Increase in apoptosis rate in neural stem cells co-cultured with vascular endothelial cells assessed as cell survival at 70 ug/mL after 10 hrs; format: functional; conditions: Mus musculus, read-out: Activity

## c1cc2c(cc1CC1CO1)OCO2 (configuration not stated)
[1]
  Activity: inactive
[2]
  Activity: Active
[3]
  Activity: inactive
[4]
  Activity: Active
[5]
  Activity: Active
[6]
  Activity: Active
[7]
  viability at 70 µg/mL: 92%
